Measurements published in patent publication US7053177B1, “Random peptides that bind to gastro-intestinal tract (GIT) transport receptors and related methods” (Cytogen Corporation, priority 1997, dated 2006).
Ends that are not written are not given here. * marks the point of attachment. Dansyl = CN(C)c1cccc2c(S(=O)(=O)*)cccc12

How the values were obtained:
BSA = BSA (Bos taurus, UniProt P02769); assay: Receptor ELISA of phage on BSA (background control protein); assay type: binding; conditions: Table 4; phage panned on hPEPT1
Chain of BSA (P02769 25-607): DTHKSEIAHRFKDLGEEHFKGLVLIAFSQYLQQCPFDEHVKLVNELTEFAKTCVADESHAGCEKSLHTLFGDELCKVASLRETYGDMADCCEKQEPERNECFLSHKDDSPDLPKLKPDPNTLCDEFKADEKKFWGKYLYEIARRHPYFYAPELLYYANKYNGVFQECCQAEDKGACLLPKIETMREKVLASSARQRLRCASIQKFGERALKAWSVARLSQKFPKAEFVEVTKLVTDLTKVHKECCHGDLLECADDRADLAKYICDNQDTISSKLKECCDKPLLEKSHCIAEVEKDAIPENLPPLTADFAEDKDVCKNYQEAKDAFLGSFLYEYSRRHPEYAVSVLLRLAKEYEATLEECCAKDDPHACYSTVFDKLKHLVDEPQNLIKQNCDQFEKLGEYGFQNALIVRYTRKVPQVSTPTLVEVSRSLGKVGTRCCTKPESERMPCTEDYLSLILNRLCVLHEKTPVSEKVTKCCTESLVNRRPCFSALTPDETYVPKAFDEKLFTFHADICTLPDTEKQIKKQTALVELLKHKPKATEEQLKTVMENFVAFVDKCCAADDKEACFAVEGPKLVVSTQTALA

[1] = system: rat gastro-intestinal tract (closed loop); assay: Transport of preselected phage libraries in rat closed loop, detected by oligonucleotide hybridization/autoradiography; conditions: hPEPT1 pool; in words
[2] = Animal Study 3: intraduodenal open loop leuprolide acetate particles, plasma leuprolide; assay type: in vivo, Wistar rats; conditions: intraduodenal 600 μg vs 12.5 μg subcutaneous
Protocol: An intraduodenal open loop model study was carried out on Wistar rats (300–350 g). Group 1 was administered leuprolide acetate (12.5 μg) subcutaneously. Group 2 was administered intraduodenally uncoated leuprolide acetate particles (600 μg, 1.5 ml).

fixed Caco-2 cells [3] = assay: Effect of thrombin cleavage on binding of GST-peptide fusions to fixed Caco-2 cells; conditions: in words
Protocol: Binding of intact and thrombin-cleaved GST-peptide fusions to fixed Caco-2 cells was compared.
Thirty micrograms of each GST-peptide was treated with bovine thrombin (1 μ/ml; 0.4 NIH units; Sigma CN.T9681) for 18h at room temperature in 20 mM Tris-HCl pH8.0, 150 mM NaCl, 2.5 mM CaCl2. Controls were similarly treated without addition of thrombin. Ten micrograms of each GST-peptide fusion was removed for PAGE analysis, and 10 μg of fusions were added in duplicate to the fixed Caco-2 cells before 5-fold serial dilutions (1% BPT diluent). The fusions were allowed to bind for 1h at room temperature. Following 6 washes with 1% BPT, binding was assayed by ELISA.

[4] = system: P100 membrane fraction of Caco-2 cells; assay: GST-PAX2 peptides: relative binding to P100 fractions (ratio to GST-HAX42); conditions: GST-peptide 20 μg/ml; binding to plastic subtracted; GST-HAX42 = 1.00
Protocol: The peptides and proteins were analyzed by a dansylated peptide ELISA method in which 96 well plates were coated overnight at 4° C. with 100 μl/well coating protein (normally 100 μg/ml P100 membrane fraction) in 0.05M carbonate buffer pH9.6. Nonspecific binding was blocked using 200 μl/well, 2% Marvel/PBS for 2 hours at 37° C. prior to incubation with dansylated peptides. The plates were washed three times with PBS/0.05% Tween 20 and after each subsequent incubation step. […] A buffer blank control was included to ensure that background binding to plastic was not due to the antibodies used in the assay system. […] The plates were then incubated with an anti-mouse λ-HRP conjugated antibody (Southern Biotech 1060-05) at a 1:10,000 dilution in blocking solution, 100 μl/well for 1 hour at room temperature. Plates were developed using 75 μl/well Bionostics TMB substrate and incubated for approximately 10 minutes. The developing reaction was stopped using Bionostics Red Stop solution (25 μl/well), and the optical density of the plates was read at 650 nm.
After subtraction of the GST-peptide binding to plastic from P100 binding values, the binding of GST-PAX2 peptides were represented as a ratio of GST-HAX42 binding to P100, which was given the arbitrary value of 1.00. The following ratios were determined from binding to P100 of GST-peptides at a peptide concentration of 20 μg/ml. […]

[5] = system: P100 membrane fraction of Caco-2 cells; assay: Dansylated peptide ELISA: relative binding of PAX2 and HAX42 peptides to P100 fractions (ratio to ZElan021); conditions: HAX42 peptides, ratio to ZElan021 = 1.00
How it was run: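 Plates coated overnight at 4 °C with Caco-2 P100 membrane fraction (normally 100 μg/ml, pH 9.6) and blocked with 2% Marvel/PBS were incubated with dansylated peptides. Binding was detected with anti-mouse λ-HRP and TMB, read at 650 nm, and expressed relative to ZElan021.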

fixed Caco-2 cells [6] = assay: Competition ELISA: synthetic peptides versus GST-peptide fusions on fixed Caco-2 cells; conditions: peptide from 100 μg/ml serially diluted; GST fusion 10 μg
Protocol: Caco-2 cells were fixed, treated with phenylhydrazin and blocked as described above. Synthetic peptides (100 μg/ml) were applied in duplicate to Caco-2 cells and serially diluted down the 96-well plate. The corresponding GST-peptide fusion protein (10 μg) was added to each well and the plates were incubated for 2h at room temperature with agitation. Binding of the GST-peptide fusion proteins to the cells was assayed using the ELISA technique described above.

[7] = system: P100 membrane fraction of Caco-2 cells; assay: Binding of dansylated peptides to P100 fractions (peptide/particle correlation); conditions: compared with scrambled PAX2 control
Protocol: Caco-2 cell membrane (P100) and cytosolic (S100) fractions were prepared using a modification of the method described in Kinsella, B. T., O'Mahony, D. J. and G. A. FitzGerald, 1994, J. Biol. Chem. 269(47): 29914–29919. Confluent Caco-2 cell monolayers (grown in 75 cm^2 flasks for up to 1 week at 37° C. and 5% CO2) were washed twice in Dulbecco's PBS (DPBS) and the cells were harvested by centrifugation at 1000 rpm after treatment with 10 mM EDTA-DPBS. The cells were washed 3 times in DPBS and the final cell pellet was resuspended in 3 volumes of ice cold HED buffer (20 mM HEPES (pH 7.67), 1 mM EGTA, 0.5 mM dithiothreitol, 1 mM phenylmethylsulphonyl fluoride (PMSF)). The cells were allowed to swell for 5 min on ice prior to homogenization for 30 sec. The homogenates were centrifuged at 40,000 rpm for 45 min at 4° C. The supernatant (S100) was removed and the pellet (P100) was resuspended in HEDG buffer (20 mM HEPES (pH 7.67), 1 mM EGTA, 0.5 mM dithiothreitol, 100 mM NaCl, 10% glycerol, 1 mM PMSF). Protein concentrations were determined using the Bradford assay (Bradford, M. M., 1976, Anal. Biochem. 72: 248–254).
Binding of peptide and/or peptide-coated PLGA particles to membrane (P100) and cytosolic (S100) fractions was assessed by detection of the dansyl moiety incorporated in the peptide. Costar ninety six well ELISA plates were coated with S100 and P100 fractions (100 μg/ml in 0.05 M NaHCO3) overnight at 4° C. The plates were blocked with 0.5% bovine serum albumin in DPBS for 1 h at room temperature and washed 3 times in 1% BSA-DPBS. Peptide-coated particles or peptides were dispersed in the same buffer and added to the plates at concentrations in the range 0.0325–0.5 mg/well. […] The plates were incubated for 1 h at room temperature. The wells were washed 3 times in 1% BSA-DPBS and 100 μl of goat anti-mouse IgGλ:HRP antibody (Southern Biotechnology 1060-05; 1:10,000) was added per well. The plates were incubated for 1 h at room temperature. After washing 3 times in 1% BSA-DPBS 100 μl of TMB substrate (3,3′,5′,5-tetramethylbenzidine; Microwell Peroxidase Substrate System (Kirkegaard and Perry Laboratories 50-76-00)) was added and the optical density was measured at 650 nm at various time intervals.
Binding of dansylated peptides to P100 fractions was assessed to determine if peptide binding was predictive of peptide-coated particle binding.

SARDSGPAEDGSRAVRLNGVENANTRKSSRSNPRGRRHP (not fully specified) [Peptide P31]
BSA (BSA): 0.075 OD
Binding to / presence in the intestine samples [1]: preferential binding
Presence in the portal circulation [1]: found
Presence in the systemic circulation [1]: found in the systemic circulation
Plasma levels of leuprolide relative to subcutaneous injection [2]: enhanced plasma levels of leuprolide

GST-PAX2-106: GST fusion of truncated peptide derived from PAX2, SEQ ID NO: 188 (TNAKHSSHNRRLRTRSRPN; also: GST fusion)
Effect of cleavage with thrombin on detection of binding to fixed Caco-2 cells (fixed Caco-2 cells [3]): significantly reduced
Value (binding to P100 as ratio of GST-HAX42 binding) [4]: 2.71

H-K(Dansyl)SDHALGTNLRSDNAKEPGDYNCCGNGNSTGRKVFNRRRPSAIPT-NH2 (cysteines drawn unpaired) [ZElan021]
Binding value at 20 μg/ml ([5]; 20 μg/ml): 1.00
Binding value at 25 μg/ml ([5]; first column): 1.00
Binding value at 25 μg/ml ([5]; second column): 1.00
Binding value at 25 μg/ml ([5]; third column): 1.00
Binding value at 50 μg/ml ([5]; first column): 1.00
Binding value at 50 μg/ml ([5]; second column): 1.00
Inhibition of GST-HAX42 binding to fixed Caco-2 cells (fixed Caco-2 cells [6]): not inhibited
Binding of dansylated peptide to P100 fraction ([7]; initial assay): strong binding
Binding of dansylated peptide to P100 fraction ([7]; repeat assay): significant binding
